What was measured:
SARS-CoV-2 [1] = assay: (§1) Antiviral activity against SARS-CoV-2 infected in HAEC cells assessed as reduction in viral replication incubated for 1.5 hrs followed by virus removal upto 24 hrs and subsequent replacement of medium containing compound by RT-qPCR analysis; assay type: functional, organism-based; settings: Severe acute respiratory syndrome coronavirus 2, HAEC
SARS-CoV-2 [2] = assay: as §1, with “Potency index, ratio of EC50 of GS-441524 to EC50 of test compound for antiviral” for “Antiviral”; assay type: functional, Severe acute respiratory syndrome coronavirus 2; settings: time <= 25.5 hrs

Question: With `CCC(CC)OC(=O)[C@H](C)N[P@](=O)(OC[C@H]1O[C@@](C#N)(c2ccc3c(N)ncnn23)[C@H](O)[C@@H]1O)Oc1ccccc1` as the compound, how does the EC50 (SARS-CoV-2 [1]) read?
Answer: 0.048 µM

Question: And the Ratio (SARS-CoV-2 [2])?
Answer: 11

Question: With `N#C[C@@]1(c2ccc3c(N)ncnn23)O[C@H](CO)[C@@H](O)[C@H]1O` [GS-441524] as the compound, how does the EC50 (SARS-CoV-2 [1]) read?
Answer: 0.51 µM

Reference: ChEMBL document CHEMBL5107958, “Phosphoramidate Prodrugs Continue to Deliver, The Journey of Remdesivir (GS-5734) from RSV to SARS-CoV-2” (ACS Med Chem Lett, 2022)
